Test results taken from patent US20230172936A1, “VCP/p97 INHIBITOR FOR THE TREATMENT OF CANCER” (Cleave Therapeutics, Inc., priority 2020, published 2023).
Where “and” joins values, the source holds several entries; their conditions need not be identical. Identical values can stand only once. Like-named read-outs stand apart in the source and are kept apart here.

Experiments:
MLL-AF9 cells = test: MLL-AF9 allogenic disseminated mouse model of AML; type: in vivo, mice; settings: 90 mg/kg oral gavage, 4 days on/3 days off, vs vehicle
Experimental: Compound 1 was tested in the MLL-AF9 allogenic disseminated mouse model of AML. 200,000 MLL-AF9-cells were injected via tail vein into 6-week-old C57BL/6 male mice (The Jackson Laboratory). Starting at day 8 after cell injection, mice were treated with Compound 1 delivered through oral gavage (90 mg/kg) or vehicle (0.5% methylcellulose) on a dosing schedule of 4 days “on” (administered on each of 4 days sequentially) followed by 3 days “off” (no administration on each of 3 sequential days) for 2 full cycles (two weeks total of 4 on/3 off).
The proportion of MLL-AF9 cells in peripheral blood (n=6 mice per group) was measured at 12 days post-injection of MLL-AF9 cells using flow cytometry. Murine peripheral blood, bone marrow and spleen were collected from each organ, washed with PBS-0.1% BSA-2 mM EDTA and lysed for 10 minutes with red blood cell lysis buffer (Sigma). After two washing steps with PBS-0.1% BSA-2 mM EDTA, bone marrow cells were stained for 30 minutes at 4° C. with corresponding cell surface antibodies for CD45 (CD45 […], Invitrogen). Cells were then washed twice with PBS-0.1% BSA-2 mM EDTA before analysis of 10,000 cells gated for CD45+(high) with BD FACSCanto II (BD Biosciences) to isolate the AML blast population. Statistical significance determined using Mann-Whitney test in comparison with vehicle. Error bars represent mean±SEM. […]

[1] = Adverse events and visual impairment in Phase I subjects
[2] = Human plasma pharmacokinetics (Phase I dose escalation)
From the text: BID dosing may be also tested depending on initial PK assessments. Participants will be evaluated regularly for safety assessments including physical examinations and laboratory testing. Bone marrow aspirates and/or biopsies will be performed at regular intervals, including for assessment of tumor response as per 2017 European LeukemiaNet (ELN) response criteria for AML or 2006 revised International Working Group (IWG) response criteria for MDS. Peripheral blood samples will be collected in Cycle 1 for intensive PK testing and PD biomarker assessments. Additional intensive PK testing will be collected for any participants undergoing intra-patient dose escalation.
A cycle consists of 28 days and the first cycle will comprise the DLT observation period.
Following the protocol of Example 7, additional patients were treated in the dose escalation study.

MV4; 11 cell line = test: Combination treatments, Cell Titer-Glo viability after 72 hours; type: cell-based, human; settings: MV4, 11
Experimental: (§1) The additional therapeutic agents for this example were azacitidine (Cayman Chemical Cat No. 11164), decitabine (Sigma Cat No. A3656) and venetoclax (InvivoChem Cat. No. V0001).
(§2) Cell Culture: Three human acute myeloid leukemia tumor cell lines were used in this study: HL60, MV4;11 and MOLM-13. HL60 and MV4;11 were grown in IMDM base media with 20% and 10% FBS, respectively. MOLM-13 was grown in RPMI 1640 base media with 20% FBS. All culture media contained 2 mM glutamine, 100 units/mL sodium penicillin G, […] gentamicin, and 100 μg/mL streptomycin sulfate. The tumor cells were cultured in tissue culture flasks in a humidified incubator at 37° C., in an atmosphere of 5% C02 and 95% air. Assay: Tumor cells were seeded in duplicate in a volume of 100 μL/well of media into 96-well micro-culture plates at initial densities low enough to allow for several population doublings (typically three to five) during the indicated incubation period. After a 24 hour incubation, test agents were added to each well. After 72 hours of culture with test articles, cell viability was determined using the Cell Titer-Glo® (Promega G7571) assay. Briefly, Cell Titer-Glo® (Promega G7571) reagents were equilibrated at room temperature for 30 minutes; 100 μL per well was added at endpoint (72 hours). Plates were gently shaken for two minutes and then incubated at room temperature for ten minutes prior to reading luminescence on the BMG Clariostar Plus microplate reader.
(§3) An IC50 ratio for each combination was calculated from the ratio of the combination IC50 as compared to the applicable no fixed agent (vehicle) control.

HL-60 cell line = test: as above; type: cell-based, human; settings: HL-60
Experimental: as §1, §2, §3

MOML-13 cell line = test: as above; type: cell-based, human; settings: MOML-13
Experimental: as §1, §2, §3

[3] = From the text: Group 1 received PO 4-days on, 3-days off doses (QD4/3 off) of vehicle.
[4] = Homo sapiens, 72 h, no fixed agent (vehicle), read-out: IC50
[5] = fixed agent Venetoclax+ Azacitidine - 20 nM

Cc1cc2c(C(N)=O)cccc2n1-c1nc2c(c(NCc3ccccc3)n1)CCCN2 [Compound 1, 1-(4-(Benzylamino)-5,6,7,8-tetrahydropyrido[2,3-d]pyrimidin-2-yl)-2-methyl-1H-indole-4-carboxamide]
overall survival (MLL-AF9 cells; 2 cycles): improved the overall survival | circulating blast counts (MLL-AF9 cells in peripheral blood) (MLL-AF9 cells; 12 days post-injection): reduced circulating blast counts | adverse events ([1]; 25 mg QD, two subjects): No adverse events | symptoms of visual impairment ([1]; 25 mg QD, two subjects): no symptoms of visual impairment | symptoms of visual impairment or other visual events ([1]; any dose levels, highest level 275 mg QD): No symptoms of visual impairment or other visual events | symptoms of visual impairment or other visual adverse events ([1]; at equivalent plasma exposure of Compound 1 and CB-5083): no symptoms of visual impairment or other visual adverse events | AR ([2]; 25 mg QD, Day 4): 0.914 | accumulation ([2]; 25 mg QD, between days 1 and 4): No accumulation | exposure with concomitant proton pump inhibitors (PPi) ([2]; 100 mg QD, two of three subjects): lower exposure | exposure level increases between the doses ([2]; 25, 50, 100 and 175 mg QD, 9 patients): proportional and linear | plasma exposure compared with CB-5083 ([2]; Compound 1 25 mg QD vs CB-5083 40 mg QD): significantly higher plasma exposure | exposures compared with CB-5083 ([2]; Compound 1 25 mg QD vs CB-5083 at greater than 200 mg, FIG. 7): greater than dosing CB-5083 at greater than 200 mg | exposures compared with CB-5083 ([2]; dose escalation 25-175 mg QD, FIG. 8): greater than dosing CB-5083 | Tmax ([2]; human, in vivo, 25 mg): 2 h | tmax ([2]; human, in vivo, 25 mg): 2 h | AUC(0-inf) ([2]; human, in vivo, 25 mg, AUC0-inf): 1.03 µM·h and 425 ng·h/mL | AUC(0-t) ([2]; human, in vivo, 25 mg, AUC0-t): 0.88 µM·h and 364 ng·h/mL | Cmax ([2]; human, in vivo, 25 mg, Cmax): 198 nM and 81.7 ng/mL | half-life ([2]; human, in vivo, 25 mg, half-life): 3 to 4 h | half-life ([2]; human, in vivo, 25 mg, t1/2): 2.61 h | IC50 (MV4; 11 cell line; [4]): 251 nM | Combination: Monotherapy IC50 Ratio (MV4; 11 cell line; fixed agent Azacitidine - 500 nM): 0.46 | Combination: Monotherapy IC50 Ratio (MV4; 11 cell line; fixed agent Azacitidine - 3150 nM): 0.47 | Combination: Monotherapy IC50 Ratio (MV4; 11 cell line; fixed agent Decitabine - 30 nM): 0.47 | Combination: Monotherapy IC50 Ratio (MV4; 11 cell line; fixed agent Decitabine - 215 nM): 0.36 | Combination: Monotherapy IC50 Ratio (MV4; 11 cell line; [5]): 0.65 | Combination: Monotherapy IC50 Ratio (MV4; 11 cell line; fixed agent Venetoclax+ Azacitidine - 50 nM): 0.47 | Combination: Monotherapy IC50 Ratio (HL-60 cell line; fixed agent Azacitidine - 5750 nM): 1.02 | Combination: Monotherapy IC50 Ratio (HL-60 cell line; fixed agent Azacitidine - 9800 nM): 0.85 | Combination: Monotherapy IC50 Ratio (HL-60 cell line; fixed agent Decitabine - 175 nM): 0.96 | Combination: Monotherapy IC50 Ratio (HL-60 cell line; fixed agent Decitabine - 1700 nM): 1.06 | Combination: Monotherapy IC50 Ratio (HL-60 cell line; fixed agent Venetoclax+ Azacitidine - 85 nM): 0.84 | Combination: Monotherapy IC50 Ratio (HL-60 cell line; fixed agent Venetoclax+ Azacitidine - 475 nM): 0.84 | IC50 (HL-60 cell line; [4]): 305 nM | IC50 (MOML-13 cell line; [4]): 216 nM | Combination: Monotherapy IC50 Ratio (MOML-13 cell line; fixed agent Azacitidine - 105 nM): 0.39 | Combination: Monotherapy IC50 Ratio (MOML-13 cell line; fixed agent Azacitidine - 850 nM): 0.39 | Combination: Monotherapy IC50 Ratio (MOML-13 cell line; fixed agent Decitabine - 2.5 nM): 0.56 | Combination: Monotherapy IC50 Ratio (MOML-13 cell line; fixed agent Decitabine - 8.5 nM): 0.30 | Combination: Monotherapy IC50 Ratio (MOML-13 cell line; fixed agent Venetoclax+ Azacitidine - 6.5 nM): 0.71 | Combination: Monotherapy IC50 Ratio (MOML-13 cell line; [5]): 0.52 | drug-related deaths ([3]; 100 mg/kg QD4/3 off): a single drug-related death | tolerability of dosing regimen ([3]; 100 mg/kg QD4/3 off): generally tolerated | mean body weight loss ([3]; 100 mg/kg QD4/3 off, day 2): −7.0% | deaths ([3]; 150 mg/kg BIW cohort): No deaths | body weight loss ([3]; 150 mg/kg BIW, day 2): −1.5% | body weight loss ([3]; 150 mg/kg BIW, day 3): −3.9% | drug related deaths ([3]; 225 mg/kg 1/W cohort): A single drug related death | body weight loss ([3]; 225 mg/kg weekly, day 4): −8.1%
